Assay results from BindingDB's records for patent US20250313563 (The Broad Institute, 2025).
Where “and” joins values, the source holds several entries; their conditions need not be identical. Equal entries are not always repeated.

Experiments:
[1] = molecular target: Glycogen synthase kinase-3 beta (Homo sapiens, UniProt P49841); experiment: TR-FRET Assay
In short: (§1)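 30 min preinc w/ cpd in assay buffer → kinase rxn → EDTA quench → add detection mix (40 nM SA-d2, 2 nM Tb-pSer641 Ab) → TR-FRET read.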

[2] = molecular target: Glycogen synthase kinase-3 alpha (Homo sapiens, UniProt P49840); experiment: TR-FRET Assay
Sequence of Glycogen synthase kinase-3 alpha (P49840 whole entry): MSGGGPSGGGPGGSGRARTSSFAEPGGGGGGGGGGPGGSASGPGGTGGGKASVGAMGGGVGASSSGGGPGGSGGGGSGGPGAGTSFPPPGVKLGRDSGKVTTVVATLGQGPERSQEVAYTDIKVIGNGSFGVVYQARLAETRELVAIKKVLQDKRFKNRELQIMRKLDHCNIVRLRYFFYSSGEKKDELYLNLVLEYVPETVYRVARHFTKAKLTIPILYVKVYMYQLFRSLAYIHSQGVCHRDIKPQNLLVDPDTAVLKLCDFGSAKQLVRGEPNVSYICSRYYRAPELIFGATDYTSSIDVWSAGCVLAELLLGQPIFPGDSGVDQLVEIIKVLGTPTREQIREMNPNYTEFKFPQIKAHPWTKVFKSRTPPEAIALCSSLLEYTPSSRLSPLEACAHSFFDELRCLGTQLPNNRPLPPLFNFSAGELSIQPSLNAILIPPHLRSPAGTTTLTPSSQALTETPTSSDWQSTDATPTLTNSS
In short: as §1

Sequence of Glycogen synthase kinase-3 beta (P49841 whole entry): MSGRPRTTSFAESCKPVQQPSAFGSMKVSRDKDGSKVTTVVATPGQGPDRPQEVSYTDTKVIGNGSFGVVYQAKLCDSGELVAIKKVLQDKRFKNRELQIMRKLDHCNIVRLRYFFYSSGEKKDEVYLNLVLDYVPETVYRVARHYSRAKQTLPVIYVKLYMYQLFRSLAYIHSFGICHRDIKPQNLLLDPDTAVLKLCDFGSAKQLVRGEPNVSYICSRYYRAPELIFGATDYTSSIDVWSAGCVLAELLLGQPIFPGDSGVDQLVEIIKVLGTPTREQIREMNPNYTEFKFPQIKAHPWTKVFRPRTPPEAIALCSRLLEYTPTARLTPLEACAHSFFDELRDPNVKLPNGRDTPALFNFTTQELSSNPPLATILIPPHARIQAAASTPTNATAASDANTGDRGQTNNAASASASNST

Row | SMILES | IC50 [1] | IC50 [2]
1 | C[C@@H]1C[C@@]2(CCO1)C1=C(N=NC1)NC1=C2C(=O)CC(C)(C)C1 [US20250313563, Compound 899559] | 1 to 5 µM | 0.1 to 1 µM
2 | CC1(C)CC(=O)C2=C(C1)NC1=C(CN=N1)[C@]21COC2(CN(C(=O)C3(F)CCC3)C2)C1 [US20250313563, Compound 947735] | < 0.1 µM | < 0.1 µM
3 | CC1(C)CC(=O)C2=C(C1)NC1=C(CN=N1)C21COC2(CCC2)C1 (configuration not stated) [US20250313563, Compound 911973] | 0.1 to 1 µM | 0.1 to 1 µM
4 | C[C@@H]1CCC[C@]2(C1)C1=C(N=NC1)NC1=C2C(=O)CC(C)(C)C1 [US20250313563, Compound 874537] | 0.1 to 1 µM | 0.1 to 1 µM
5 | CCC1(c2cccc(S(=O)(=O)C3CC(F)(F)C3)c2)C2=CN=NC2NC2=C1C(=O)CC(C)(C)C2 (configuration not stated) [US20250313563, Compound 944019] | < 0.1 µM | < 0.1 µM
6 | Cn1cc([C@H]2CC[C@@]3(CC2)C2=C(N=NC2)NC2=C3C(=O)CC(C)(C)C2)cn1 [US20250313563, Compound 949323] | > 5 µM | 1 to 5 µM
7 | CC1(C)CC(=O)C2=C(NC3=C(CN=N3)C23CCN(S(=O)(=O)C2CC2)CC3)C1F (configuration not stated) [US20250313563, Compound 950814] | < 0.1 µM | < 0.1 µM
8 | CC1(C)CC(=O)C2=C(C1)NC1=C(CN=N1)[C@]21CCC[C@H](C#N)C1 [US20250313563, Compound 946078] | > 5 µM | 1 to 5 µM
9 | CC1(C)CC(=O)C2=C(C1)NC1=C(CN=N1)C21COC2(CN(C(=O)C3CCC(F)CC3)C2)C1 (configuration not stated) [US20250313563, Compound 947267] | 0.1 to 1 µM | < 0.1 µM
10 | CC[C@]1(c2cccc(C(F)(F)F)c2)C2=CN=NC2NC2=C1C(=O)N(c1cnc(OC)nc1)[C@@H](C)C2 (some centres not stated) [US20250313563, Compound 949352] | 1 to 5 µM | 0.1 to 1 µM
11 | CC[C@@]1(c2cccc(S(=O)(=O)C3CC3)c2)C2=CN=NC2NC2=C1C(=O)NC(C)(C)C2 (some centres not stated) [US20250313563, Compound 945999] | < 0.1 µM | < 0.1 µM
12 | CC[C@@]1(c2cccc(C(F)(F)F)c2)C2=CN=NC2NC2=C1C(=O)N(c1ccc(OC)cc1)CC2 (some centres not stated) [US20250313563, Compound 948227] | > 5 µM | 1 to 5 µM

Continued, values first:

Row | IC50 [1] | IC50 [2] | SMILES
13 | 1 to 5 µM | 0.1 to 1 µM | CC[C@@]1(c2cccc(-c3ccncc3C)c2)C2=C(CC(C)(C)CC2=O)NC2N=NC(C)=C21 (some centres not stated) [US20250313563, Compound 913022]
14 | < 0.1 µM and 1 to 5 µM | < 0.1 µM and 0.1 to 1 µM | CC[C@@]1(c2cccc(-c3cc(C)ncc3OC)c2)C2=CN=NC2NC2=C1C(=O)CC(C)(C)C2 (some centres not stated) [US20250313563, Compound 945995]
15 | < 0.1 µM and 0.1 to 1 µM | < 0.1 µM | CC[C@]1(c2cccc(Oc3ncccn3)c2)C2=C(CC(C)(C)NC2=O)NC2N=NC(C(F)(F)F)=C21 (some centres not stated) [US20250313563, Compound 951607]
16 | 0.1 to 1 µM | < 0.1 µM | CCC1(c2cccc(-c3ccnc(OC)c3C)c2)C2=CN=NC2NC2=C1C(=O)CC(C)(C)C2 (configuration not stated) [US20250313563, Compound 932628]
17 | 0.1 to 1 µM | < 0.1 µM | CC[C@]1(c2cccc(N(C)c3ccc(F)nc3)c2)C2=CN=NC2NC2=C1C(=O)CC(C)(C)C2 (some centres not stated) [US20250313563, Compound 932647]
18 | < 0.1 µM | < 0.1 µM | CCC1(c2cccc(-c3ccnc(C)c3F)c2)C2=C(CC(C)(C)NC2=O)NC2N=NC(C(F)(F)F)=C21 (configuration not stated) [US20250313563, Compound 948297]
19 | < 0.1 µM | < 0.1 µM | CCC1(c2cccc(-c3ccncc3C)c2)C2=CN=NC2NC2=C1C(=O)CC(C)(C)C2 (configuration not stated) [US20250313563, Compound 913351]
20 | 1 to 5 µM and > 5 µM | < 0.1 µM and 1 to 5 µM | CC[C@]1(c2cccc(-c3cnn(C)c3)c2)C2=CN=NC2NC2=C1C(=O)CC(C)(C)[C@H]2F (some centres not stated) [US20250313563, Compound 957505]
21 | > 5 µM | 1 to 5 µM | CC[C@H]1CCN1c1cccc([C@]2(CC)C3=CN=NC3NC3=C2C(=O)CC(C)(C)C3)c1 (some centres not stated) [US20250313563, Compound 911972]
